Columns and labels:
Assay type in all cases: biochemical
human NRK = assay: enzymatic conversion by purified NRK1 and NMNAT1 with ATP, HPLC: NRK step; conditions: 2 mM S-NR, 6 mM ATP, 5 μM NRK1 and 5 μM NMNAT1, RT; relative to NR
Procedure: (§1) FIGS. 4A-4D: HPLC analysis of enzymatic synthesis of S-NAD^+ by the purified NRK1 and NMNAT1 as measured by UV absorbance at 260 nm. 2 mM S—NR was incubated with 6 mM ATP and 5 μM NRK1 and 5 μM NMNAT1 at RT for 0 h (FIG. 4A), 0.5 h (FIG. 4B), 1 h (FIG. 4C), and 4 h (FIG. 4D), followed by HPLC analysis.
(§2) Purified S—NR (0.5 mg in the form of bromide salt) was incubated with 6 mM ATP, 5 uM of purified NRK1 and NMNAT1 at the final concentration of 2 mM at room temperature for overnight in the reaction buffer (50 mM Tris, 100 mM NaCl, 12 mM MgCl2, 1 mM DTT, and pH 7.5). After centrifugation at 4,000 g for 5 minutes, supernatants were analyzed by HPLC and the fraction containing S-NAD^+ (0.68 mg, 70%) were pooled and confirmed by both NMR and mass spectrometry. All analysis and purifications on HPLC were performed with a semipreparative C18 Kinetex column (5 μm, 100 Å, 150×10.0 mm, from Phenomenex Inc, Torrance, CA) using the following method, mobile phase A: 0.1% formic acid (aq); mobile phase B: 0.1% formic acid in methanol; flow rate: 2.0 ml/min; 0-2 min: 0-4% B, 2-4 min: 4-10% B; 4-6 min: 10-20% B; 6-9 min: 20% B; 9-12 min: 20-50% B; and 12-14 min: 50-0% B.
(§3) Human NRK1 and NMNAT1 were then expressed and purified from Escherichia coli (FIG. 1). In vitro biosynthesis of NAD^+ and S-NAD^+ from NR and S—NR, respectively, were carried out using purified NRK1 and NMNAT1. […]

human NMNAT = target: T1, human NMNAT (Homo sapiens, UniProt Q9HAN9); assay: enzymatic conversion by purified NRK1 and NMNAT1 with ATP, HPLC: NMNAT step; conditions: 6 mM ATP, 5 μM NRK1 and 5 μM NMNAT1, RT; relative to NMN
T1 construct: made in house; host or cells: E. coli BL21 (DE3), pET-28a(+)
T1 sequence (Q9HAN9 with tags, fused parts or gaps): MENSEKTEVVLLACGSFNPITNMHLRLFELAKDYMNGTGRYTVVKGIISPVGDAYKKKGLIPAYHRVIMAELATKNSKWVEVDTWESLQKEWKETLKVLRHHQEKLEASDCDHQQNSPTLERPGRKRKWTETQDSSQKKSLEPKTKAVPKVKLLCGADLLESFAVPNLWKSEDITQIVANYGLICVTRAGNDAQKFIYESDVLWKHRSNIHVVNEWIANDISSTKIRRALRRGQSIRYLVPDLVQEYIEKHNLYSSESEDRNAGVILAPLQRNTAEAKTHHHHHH
Procedure: as §1, §2, §3

[1] = target: T2, Leuconostoc mesenteroides glucose-6-phosphate dehydrogenase (G6PDH) (Leuconostoc mesenteroides, UniProt P11411); assay: substrate activity with redox enzyme G6PDH (UV 340 nm and HPLC); conditions: 0.5 mM compound, 5 mM D-glucose 6-phosphate; for HPLC analysis of reduction by L. mesenteroides G6PDH: 10 unit/ml G6PDH, 30 minutes, peaks confirmed by mass spectrometry
T2 construct: purchased Sigma-Aldrich (St. Louis, MO)
T2 sequence (P11411 whole entry): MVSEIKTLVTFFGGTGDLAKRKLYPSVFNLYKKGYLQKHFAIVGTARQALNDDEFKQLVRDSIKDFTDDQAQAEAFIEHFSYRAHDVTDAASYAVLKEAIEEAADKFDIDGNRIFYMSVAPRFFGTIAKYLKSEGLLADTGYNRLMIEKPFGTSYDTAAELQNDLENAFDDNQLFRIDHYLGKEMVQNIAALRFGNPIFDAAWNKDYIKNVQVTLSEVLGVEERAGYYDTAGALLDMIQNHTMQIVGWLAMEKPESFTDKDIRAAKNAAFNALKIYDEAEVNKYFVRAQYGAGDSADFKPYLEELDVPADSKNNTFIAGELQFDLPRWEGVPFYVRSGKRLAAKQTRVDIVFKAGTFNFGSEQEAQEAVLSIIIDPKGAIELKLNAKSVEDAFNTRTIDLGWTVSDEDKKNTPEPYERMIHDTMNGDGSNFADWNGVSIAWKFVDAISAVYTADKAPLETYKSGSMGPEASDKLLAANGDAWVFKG
Procedure: (§4) Bovine glutamate dehydrogenase (GDH) and Leuconostoc mesenteroides glucose-6-phosphate dehydrogenase (G6PDH) were purchased from Sigma-Aldrich (St. Louis, MO) and used for determining the substrate activities of NAD^+ and S-NAD^+. To examine substrate activity with bovine GDH, 0.1 mM NAD^+ or S-NAD^+ was incubated with 1 mM L-glutamate and 0.1 unit/ml GDH in buffer containing 2 mM DTT, 50 mM Tris, pH 7.5 for 15 minutes at room temperature. To determine substrate activity with G6PDH, 0.5 mM NAD^+ or S-NAD^+ was incubated with 5 mM D-glucose 6-phosphate and 0.01 unit/ml G6PDH in buffer containing 5 mM MgCl2, 50 mM Tris, pH 7.5 for 15 minutes at room temperature. Formation of NADH and S-NADH were monitored by UV absorbance at 340 nm under kinetic mode using a NanoDrop 2000C spectrophotometer (Thermo Scientific, MA).
(§5) To examine the bovine GDH-catalyzed reactions, 0.5 mM NAD^+ or S-NAD^+ was incubated with 2 mM L-glutamate and 20 unit/ml GDH in buffer containing 2 mM DTT, 50 mM Tris, pH 7.5 for 30 minutes at room temperature, followed by HPLC analysis with detection of UV absorbance at 340 nm. To evaluate the L. mesenteroides G6PDH-catalyzed reactions, 0.5 mM NAD^+ or S-NAD^+ was incubated with 5 mM D-glucose 6-phosphate and 10 unit/ml G6PDH in buffer containing 5 mM MgCl2, 50 mM Tris, pH 7.5 for 30 minutes at room temperature, followed by HPLC analysis with detection of UV absorbance at 340 nm. The HPLC method used for analysis of reactions by GDH and G6PDH was the same as described above.

[2] = target: T3, Bovine glutamate dehydrogenase (GDH) (Bos taurus, UniProt P00366); assay: substrate activity with redox enzyme GDH (UV 340 nm and HPLC); conditions: for HPLC analysis of reduction by bovine GDH: 0.5 mM compound, 2 mM L-glutamate, 20 unit/ml GDH, 30 minutes, peaks confirmed by mass spectrometry
T3 construct: purchased Sigma-Aldrich (St. Louis, MO)
T3 sequence (P00366 58-558): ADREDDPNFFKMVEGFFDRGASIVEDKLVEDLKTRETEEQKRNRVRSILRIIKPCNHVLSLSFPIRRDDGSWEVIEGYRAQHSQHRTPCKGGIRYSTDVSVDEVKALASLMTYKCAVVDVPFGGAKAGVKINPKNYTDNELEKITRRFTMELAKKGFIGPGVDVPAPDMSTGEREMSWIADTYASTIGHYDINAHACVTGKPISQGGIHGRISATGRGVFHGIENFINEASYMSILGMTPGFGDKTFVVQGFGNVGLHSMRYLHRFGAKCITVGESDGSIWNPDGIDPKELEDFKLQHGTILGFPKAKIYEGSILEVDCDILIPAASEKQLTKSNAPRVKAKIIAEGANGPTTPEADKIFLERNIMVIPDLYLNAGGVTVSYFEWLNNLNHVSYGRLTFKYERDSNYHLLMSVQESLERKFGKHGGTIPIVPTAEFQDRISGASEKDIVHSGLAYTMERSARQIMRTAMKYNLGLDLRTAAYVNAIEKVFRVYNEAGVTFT
Procedure: as §4, §5

human CD38 [3] = target: T4, human CD38 (Homo sapiens, UniProt P28907, N100D/N164A/N209D/N219D); assay: substrate activity with human CD38, overnight incubation, HPLC analysis; conditions: 1 mM compound, 13.4 nM recombinant human CD38, 50 mM MES pH 6.5, room temperature overnight
T4 construct: His6 (N, cleaved yes); TEV protease cleavage site (N, cleaved yes); made in house; host or cells: Expi293 cells, secreted, transient transfection (pFuse vector)
T4 sequence (P28907 45-300 N100D/N164A/N209D/N219D): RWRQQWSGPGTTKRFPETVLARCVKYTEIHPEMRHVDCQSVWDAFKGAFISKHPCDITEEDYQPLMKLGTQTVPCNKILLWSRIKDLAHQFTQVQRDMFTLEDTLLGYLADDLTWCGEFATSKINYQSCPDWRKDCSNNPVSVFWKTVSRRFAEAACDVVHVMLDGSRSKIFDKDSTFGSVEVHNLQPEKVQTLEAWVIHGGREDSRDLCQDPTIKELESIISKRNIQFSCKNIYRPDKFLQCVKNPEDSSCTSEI
Procedure: FIGS. 15A-15D: Activity of NAD^+ and S-NAD^+ for human CD38. HPLC analysis of substrate activities of NAD^+ (FIG. 15A-15B) and S-NAD^+ (FIG. 15C-15D) with human CD38 as measured by UV absorbance at 260 nm. 1 mM NAD^+ or S-NAD^+ was incubated without and with CD38 at RT overnight, followed by HPLC analysis.
1 mM S-NAD^+ and NAD^+ in 50 mM MES, pH 6.5 were incubated with 13.4 nM recombinant human CD38 for overnight at room temperature, followed HPLC analysis of the reaction mixtures. HPLC analysis was performed with a semipreparative C18 Kinetex column (5 μm, 100 Å, 150×10.0 mm, from Phenomenex Inc, Torrance, CA) using following method: mobile phase A: 0.1% formic acid (aq); mobile phase B: 0.1% formic acid in methanol; flow rate: 2.0 ml/min; 0-2 min: 0-4% B, 2-4 min: 4-10% B; 4-6 min: 10-20% B; 6-9 min: 20% B; 9-12 min: 20-50% B; and 12-14 min: 50-0% B.

human CD38 [4] = target: T4, human CD38; assay: continuous fluorescence-based CD38 cyclase activity assay with NGD+ as substrate (cGDPR formation)
Procedure: Recombinant human CD38 (8 nM) was incubated with 50 μM NGD^+ in the presence of varied concentrations of S-NAD^+. CD38 cyclase activities were monitored on the basis of the formation of fluorescent cGDPR as measured at 410 nm.
NGD^+ (Sigma-Aldrich, MO) was used as a substrate to determine ADP-ribosyl cyclase activity of purified CD38, because cyclic GDP-ribose (cGDPR) product is characterized by distinctive UV absorbance at 295 nm and fluorescence emission at 410 nm (excitation at 300 nm).^5 To characterize kinetic parameters, reactions were initiated by additions of recombinant CD38 (8.3 nM final) into assay wells with various concentrations of NGD^+ in 20 mM MES, pH 6.5, followed by monitoring the reactions through fluorescence at 410 nm (excitation at 300 nm) to determine initial reaction rates. Inhibition activities of S-NAD^+ were determined by carried out enzymatic formation of cyclic GDP-ribose in the presence of S-NAD^+. […] All reactions were carried out in black 96-well plates and the resulting fluorescence was measured using a BioTek Synergy H1 Hybrid Multi-Mode Microplate Reader (BioTek, VT) in the kinetic mode. The Km of NGD^+ for CD38 was calculated by fitting data with Michaelis-Menten function implemented in GraphPad Prism (La Jolla, CA). […]

Compound	HPLC analysis of reduction by L. mesenteroides G6PDH [1]	HPLC analysis of reduction by bovine GDH [2]	fate of compound after overnight reaction with CD38 (HPLC) (human CD38 [3])	also measured
NC(=O)c1ccc[n+]([C@@H]2S[C@H](CO)[C@@H](O)[C@H]2O)c1.[Br-] [S—NR, 3-carbamoyl-1-((2R,3R,4S,5R)-3,4-dihydroxy-5-(hydroxymethyl)tetrahydrothiophen-2-yl)pyridin-1-ium]				effect of sulfur substitution on substrate activity for human NRK (human NRK): no effect
NC(=O)c1ccc[n+](C2SC(COP(=O)([O-])O)C(O)C2O)c1 (stereo not drawn) [S-NMN, 4′-thioribose nicotinamide mononucleotide]				effect of sulfur substitution on substrate activity for human NMNAT (human NMNAT): no effect
NC(=O)c1ccc[n+]([C@@H]2O[C@H](COP(=O)([O-])OP(=O)(O)OC[C@H]3O[C@@H](n4cnc5c(N)ncnc54)[C@H](O)[C@@H]3O)[C@@H](O)[C@H]2O)c1 [NAD^+, Nicotinamide adenine dinucleotide, reference compound]	enzyme-dependent formation of NADH and S-NADH peaks	enzyme-dependent formation of NADH and S-NADH peaks	completely consumed	
NC(=O)c1ccc[n+]([C@@H]2S[C@H](COP(=O)(O)OP(=O)([O-])OC[C@H]3O[C@@H](n4cnc5c(N)ncnc54)[C@H](O)[C@@H]3O)[C@@H](O)[C@H]2O)c1 (stereo in doubt) [S-NAD^+, 4′-thioribose NAD+]	enzyme-dependent formation of NADH and S-NADH peaks	enzyme-dependent formation of NADH and S-NADH peaks	still remained unchanged	reduction by L. mesenteroides G6PDH monitored by UV absorbance at 340 nm ([1]; 0.01 unit/ml G6PDH, 15 minutes, room temperature): characteristic increases of UV absorbance at 340 nm; reduction by bovine GDH monitored by UV absorbance at 340 nm ([2]; 0.1 mM compound, 1 mM L-glutamate, 0.1 unit/ml GDH, 15 minutes, room temperature): characteristic increases of UV absorbance at 340 nm; slow-onset inhibition of CD38 (human CD38 [4]; direct competition assays with extended incubation or preincubating CD38 with S-NAD+): no slow-onset inhibition was observed
NC(=O)c1ccc[n+]([C@@H]2O[C@H](COP(=O)([O-])OP(=O)(O)OC[C@H]3O[C@@H](n4cnc5c(=O)[nH]c(N)nc54)[C@H](O)[C@@H]3O)[C@@H](O)[C@H]2O)c1 [NGD^+, nicotinamide guanine dinucleotide, reference compound]				Km (human CD38 [4]; 8.3 nM recombinant CD38, 20 mM MES pH 6.5, fluorescence at 410 nm): 8.5 ± 0.6 µM

Reference: patent US11834470B2, “4-thioribose NAD analogues and methods of synthesizing and using the same” (University of Southern California, priority 2018, dated 2023)
